The structures appear in SMILES notation. Where two headings read alike, the source gives them in different places.

Type in all cases: cell-based, hepatitis C virus
Assay [1] relates to genotype 1b (Con1) wild type transient HCV replicon in Huh-7-derived cells. Kind of assay: Transient-transfected HCV replicon EC50, genotype 1b wild type. The conditions noted are these: Hepatitis C virus, 72 h, transient-transfected replicon genotype 1b wild type, read-out: EC50 1B WT. (A replicon is a self-replicating genome or part of one, used to study replication in cells.)

The subject of assay [2] is genotype 3a (S52) stable HCV replicon in Huh-7-derived cells. Kind of assay: Stable subgenomic HCV replicon EC50, genotype 3a (Renilla luciferase). The conditions noted are these: Hepatitis C virus, 72 h, read-out: EC50 3A RLUC.
The subject of assay [3] is genotype 2a (JFH-1) stable HCV replicon in Huh-7-derived cells. Kind of assay: Stable subgenomic HCV replicon EC50, genotype 2a (Renilla luciferase). The conditions noted are these: Hepatitis C virus, stable replicon genotype 2a, 72 h, read-out: EC50 2A RLUC. In a few lines: (§1)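 Compounds, three-fold diluted, were applied to Huh-7-derived cells harbouring luciferase replicons (genotype 1a H77, 1b Con1, 2a JFH-1, 4a ED43, with strain-specific adaptive mutations). Seventy-two hours later, intracellular replication was gauged by Renilla luciferase activity and EC50 derived by regression.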

Assay [4] relates to genotype 1a (H77) stable HCV replicon in Huh-7-derived cells. Kind of assay: Stable subgenomic HCV replicon EC50, genotype 1a (Renilla luciferase). The conditions noted are these: Hepatitis C virus, stable replicon genotype 1a, 72 h, read-out: EC50 1A RLUC. In a few lines: as §1
The test system of assay [5] is genotype 1a (H77) wild type transient HCV replicon in Huh-7-derived cells. Kind of assay: Transient-transfected HCV replicon EC50, genotype 1a wild type. The conditions noted are these: Hepatitis C virus, 72 h, transient-transfected replicon genotype 1a wild type, read-out: EC50 1A WT.
Assay [6] has as its system genotype 1a NS3/4a protease inhibitor resistant variant R155K transient HCV replicon in Huh-7-derived cells. Kind of assay: Transient-transfected HCV replicon EC50, genotype 1a R155K. The conditions noted are these: Hepatitis C virus, 72 h, read-out: EC50 1A R155K, transient-transfected replicon genotype 1a R155K resistant variant, 72 h.
Assay [7] relates to genotype 3a (S52) wild type transient HCV replicon in Huh-7-derived cells. Kind of assay: Transient-transfected HCV replicon EC50, genotype 3a wild type. The conditions noted are these: Hepatitis C virus; transient-transfected replicon genotype 3a wild type, 72 h; read-out: EC50 3A WT.
In assay [8] the test system is genotype 1b NS3/4a protease inhibitor resistant variant D168A transient HCV replicon in Huh-7-derived cells. Kind of assay: Transient-transfected HCV replicon EC50, genotype 1b D168A. The conditions noted are these: Hepatitis C virus, 72 h, read-out: EC50 1B D168A, transient-transfected replicon genotype 1b D168A resistant variant, 72 h.
Assay [9] deals with genotype 4a (ED43) stable HCV replicon in Huh-7-derived cells. Kind of assay: Stable subgenomic HCV replicon EC50, genotype 4a (Renilla luciferase). The conditions noted are these: Hepatitis C virus, 72 h, read-out: EC50 4A RLUC. A digest of the protocol:
as §1

Assay [10] relates to genotype 1b (Con1) stable HCV replicon in Huh-7-derived cells. Kind of assay: Stable subgenomic HCV replicon EC50, genotype 1b (Renilla luciferase). The conditions noted are these: Hepatitis C virus, stable replicon genotype 1b, 72 h, read-out: EC50 1B RLUC. In a few lines: as §1

Regarding `C[C@@H]1[C@@H]2CN(C(=O)[C@H](C(C)(C)C)NC(=O)O[C@@H]3C[C@@H]4C[C@@H]4[C@H]3CCCCC(F)(F)c3nc4ccccc4nc3O2)[C@@H]1C(=O)N[C@]1(C(=O)NS(=O)(=O)C2(C)CC2)C[C@H]1C(F)F` [Example 82, (1aS,2aR,6S,9S,10S,11R,23aR,23bS)-6-tert-butyl-N-[(1R,2R)-2-(difluoromethyl)-1-{[(1-methylcyclopropyl)sulfonyl]carbamoyl}cyclopropyl]-19,19-difluoro-10-methy-4,7-dioxo-1a,2,2a,4,5,6,7,10,11,19,20,21,22,23,23a,23b-hexadecahydro-1H,9H-8,11-methanocyclopropa[4′,5′]cyclopenta[1′,2′:18,19][1,10,3,6]dioxadiazacyclononadecino[11,12-b]quinoxaline-9-carboxamide], the EC50 (in general, the concentration needed to bring the measured effect to its halfway point) in assay [1] was determined as 4.1 nM; in assay [2] it was 25 nM; in assay [3], 4.7 nM; in assay [4], 8.5 nM; in assay [5], 7.8 nM; in [6], 6.2 nM. In addition, the concentration for a half-maximal effect (EC50) in assay [7] was 16 nM; in assay [8], 5.7 nM; in assay [9] it was 10 nM; in assay [10] it was 9.3 nM.
For the compound `CC[C@@H]1[C@@H]2CN(C(=O)[C@H](C(C)(C)C)NC(=O)O[C@@]3(C)C[C@@H]3CCCCC(F)(F)c3nc4ccc(OC)cc4nc3O2)[C@@H]1C(=O)N[C@]1(C(=O)NS(=O)(=O)C2(C)CC2)C[C@H]1C(F)F` [Example 64, (1aS,5S,8S,9S,10R,22aS)-5-tert-butyl-N-[(1R,2R)-2-(difluoromethyl)-1-{[(1-methylcyclopropyl)sulfonyl]carbamoyl}cyclopropyl]-9-ethyl-18,18-difluoro-14-methoxy-1a-methyl-3,6-dioxo-1,1a,3,4,5,6,9,10,18,19,20,21,22,22a-tetradecahydro-8H-7,10-methanocyclopropa[18,19][1,10,3,6]dioxadiazacyclononadecino[11,12-b]quinoxaline-8-carboxamide], the EC50 in assay [1] is 17 nM; in [2], 671 nM; in assay [3] it was 48 nM; in assay [4], 100 nM; in assay [5], 37 nM; in assay [6], 50 nM. For the same compound, the EC50 was determined as 256 nM in assay [7], 104 nM in assay [8], 34 nM in assay [9] and 38 nM in assay [10].
As for `CC[C@@H]1[C@@H]2CN(C(=O)[C@H](C(C)(C)C)NC(=O)O[C@]3(C)CCC[C@H]3CCCCCc3nc4ccc(OC)cc4nc3O2)[C@@H]1C(=O)N[C@]1(C(=O)NS(=O)(=O)C2(C)CC2)C[C@H]1CC(F)F` [Example 41, (3aR,7S,10S,11S,12R,24aR)-7-tert-butyl-N-[(1R,2S)-2-(2,2-difluoroethyl)-1-{[(1-methylcyclopropyl)sulfonyl]carbamoyl}cyclopropyl]-11-ethyl-16-methoxy-3a-methyl-5,8-dioxo-1,2,3,3a,5,6,7,8,11,12,20,21,22,23,24,24a-hexadecahydro-10H-9,12-methanocyclopenta[18,19][1,10,3,6]dioxadiazacyclononadecino[11,12-b]quinoxaline-10-carboxamide], the EC50 came to 154 nM in [1]; 2610 nM in [2]; 106 nM in [3]; 135 nM in assay [4]; 164 nM in assay [5]; 505 nM in assay [6]. Also, the concentration for a half-maximal effect (EC50) in assay [7] worked out at 539 nM; in assay [8], 715 nM; in [9] it was 135 nM; in assay [10] it was 142 nM.
In the case of `CC[C@@H]1[C@@H]2CN(C(=O)[C@H](C(C)(C)C)NC(=O)O[C@]3(C)CCC[C@H]3CCCCCc3nc4ccc(OC)cc4nc3O2)[C@@H]1C(=O)N[C@]1(C(=O)NS(=O)(=O)C2CC2)C[C@H]1CC` [Example 51], the EC50 came out at 24 nM in assay [1] (GETYPE1B); 1220 nM in [2]; 103 nM in assay [3]; 40 nM in [4]; 28 nM in [5] (GETYPE1A); 92 nM in [6] (GETYPE1A). The EC50 was 265 nM in [7], 318 nM in assay [8] (GETYPE1B), 30 nM in assay [9] and 39 nM in [10].
`CC[C@@H]1[C@@H]2CN(C(=O)[C@H](C(C)(C)C)NC(=O)O[C@@H]3C[C@H]3CCCCC(F)(F)c3nc4ccc(OC)cc4nc3O2)[C@@H]1C(=O)NC1(C(=O)NS(=O)(=O)C2(C)CC2)C[C@H]1CC` (stereo partly drawn) [Example 93, (1aR,5S,8S,9S,10R,22aR)-5-tert-butyl-9-ethyl-N-[(2R)-2-ethyl-1-{[(1-methylcyclopropyl)sulfonyl]carbamoyl}cyclopropyl]-18,18-difluoro-14-methoxy-3,6-dioxo-1,1a,3,4,5,6,9,10,18,19,20,21,22,22a-tetradecahydro-8H-7,10-methanocyclopropa[18,19][1,10,3,6]dioxadiazacyclononadecino[11,12-b]quinoxaline-8-carboxamide]: the EC50 came out at 14 nM in [1]; 116 nM in assay [2]; 15 nM in assay [3]; 12 nM in assay [4]; 13 nM in [5]; 13 nM in assay [6]. For the same compound, the EC50 in [7] was found to be 26 nM; in [8] it was 39 nM; in assay [9], 11 nM; in assay [10], 14 nM.
With `C[C@@H]1[C@@H]2CN(C(=O)[C@H](C(C)(C)C)NC(=O)O[C@@H]3C[C@@H]4C[C@@H]4[C@H]3CC/C=C/Cn3c(nc4cc(Cl)ccc4c3=O)O2)[C@@H]1C(=O)N[C@]1(C(=O)NS(=O)(=O)C2(C)CC2)C[C@H]1C(F)F` [Example 96, (1aS,2aR,6S,9S,10S,11R,21E,24aR,24bS)-6-tert-butyl-15-chloro-N-[(1R,2R)-2-(difluoromethyl)-1-{[(1-methylcyclopropyl)sulfonyl]carbamoyl}cyclopropyl]-10-methyl-4,7,18-trioxo-1a,2,2a,4,5,6,7,10,11,20,23,24,24a,24b-tetradecahydro-1H,9H,18H-8,11-methanocyclopropa[4′,5′]cyclopenta[1′,2′:18,19][1,10,3,6,12]dioxatriazacyclononadecino[11,12-b]quinazoline-9-carboxamide], the EC50 in assay [1] is 4.1 nM; in [2], 77 nM; in [3], 5.4 nM; in assay [4] it was 12 nM; in [5], 5.2 nM; in assay [6] it was 3.8 nM. Further, the concentration for a half-maximal effect (EC50) was determined as 12 nM in assay [7], 3.6 nM in assay [8], 8.9 nM in [9] and 11 nM in assay [10].

Source of the values: US10335409B2 (priority 2012, dated 2019).
